Laboratory results published in patent US20060148858A1, “1, 2-Azole derivatives with hypoglycemic and hypolipidemic activity” (priority 2002, published 2006).

Key:
[1] = molecular target: T1, PPARγ-RXRα heterodimer (Homo sapiens, UniProt P37231); assay: PPARγ-RXRα heterodimer ligand activity, luciferase reporter in PPARγ:RXRα:4ERPP/CHO-K1 cells (Test Example 3); assay type: cell-based; conditions: 18-48 hours, concentration for 50% of the maximum fold induction
T1 construct: expressed in transfected cells; host or cells: CHO-K1
T1 sequence (P37231 1-477 isoform P37231-2): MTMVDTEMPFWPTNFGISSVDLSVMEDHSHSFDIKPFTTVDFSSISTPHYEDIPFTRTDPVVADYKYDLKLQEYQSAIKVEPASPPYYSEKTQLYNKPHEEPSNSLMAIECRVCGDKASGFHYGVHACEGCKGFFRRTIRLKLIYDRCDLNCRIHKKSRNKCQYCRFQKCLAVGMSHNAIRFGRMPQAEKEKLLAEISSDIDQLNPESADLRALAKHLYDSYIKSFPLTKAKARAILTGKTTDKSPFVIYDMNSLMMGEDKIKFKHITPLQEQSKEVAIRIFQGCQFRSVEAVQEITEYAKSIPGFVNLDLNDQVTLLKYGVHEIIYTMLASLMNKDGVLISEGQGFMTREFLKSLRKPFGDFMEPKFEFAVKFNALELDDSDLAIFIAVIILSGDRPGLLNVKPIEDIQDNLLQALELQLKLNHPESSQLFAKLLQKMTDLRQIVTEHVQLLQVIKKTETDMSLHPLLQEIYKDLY
T1 sequence (P19793 1-462 partner): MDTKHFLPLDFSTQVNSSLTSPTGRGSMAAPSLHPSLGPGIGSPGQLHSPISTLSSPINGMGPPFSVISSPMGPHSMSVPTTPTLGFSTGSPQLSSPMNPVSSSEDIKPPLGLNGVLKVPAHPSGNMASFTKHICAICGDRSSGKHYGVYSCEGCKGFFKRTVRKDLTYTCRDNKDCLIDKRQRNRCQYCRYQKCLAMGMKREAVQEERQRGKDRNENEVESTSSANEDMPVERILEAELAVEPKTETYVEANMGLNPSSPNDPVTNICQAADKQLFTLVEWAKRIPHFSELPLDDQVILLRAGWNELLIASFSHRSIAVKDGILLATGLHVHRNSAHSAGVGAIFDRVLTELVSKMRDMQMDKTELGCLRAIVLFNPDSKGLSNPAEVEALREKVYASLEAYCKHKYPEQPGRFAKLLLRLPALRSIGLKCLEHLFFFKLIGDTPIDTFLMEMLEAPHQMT
Procedure, shortened: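 Stable CHO-K1 line co-expressing hPPARγ/RXR with 4ERPP-TK luciferase reporter, 2×10^4 cells per well, treated 18-48 h at 37° C. in HAM F12 with 0.1% fatty acid-free BSA. Luciferase fold induction versus untreated taken as 1; EC50 is concentration giving 50% of maximal fold induction.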

For `O=C(O)CCc1cc(OCCCc2cn(-c3ccc(C(F)(F)F)cn3)nc2C2CCCCC2)nn1-c1ccccc1` [Example 189, 3-[3-(3-{3-cyclohexyl-1-[5-(trifluoromethyl)-2-pyridyl]-1H-pyrazol-4-yl}propoxy)-1-phenyl-1H-pyrazol-5-yl]propionic acid], the melting point was 182 to 183 °C and the EC50 [1] was 14 nM.
For `CCOc1ccc(CC(=O)O)cc1OCCCc1cn(-c2ccc(C(F)(F)F)cn2)nc1C1CCCCC1` [Example 201, [3-(3-{3-cyclohexyl-1-[5-(trifluoromethyl)-2-pyridyl]-1H-pyrazol-4-yl}propoxy)-4-ethoxyphenyl]acetic acid], the melting point was 134 to 135 °C and the EC50 [1] was 63 nM.
`CCC(CC)c1nn(-c2ccc(C(F)(F)F)cn2)cc1CCCOc1c(CC(=O)O)cccc1OC` [Example 212, [2-(3-{3-(1-ethylpropyl)-1-[5-(trifluoromethyl)-2-pyridyl]-1H-pyrazol-4-yl}propoxy)-3-methoxyphenyl]acetic acid] gave a melting point of 100 to 101 °C and an EC50 [1] of 13 nM.
For `CCC(CC)c1nn(-c2ccc(C(F)(F)F)cn2)cc1CCCOc1c(C)cccc1CC(=O)O` [Example 213, [2-(3-{3-(1-ethylpropyl)-1-[5-(trifluoromethyl)-2-pyridyl]-1H-pyrazol-4-yl}propoxy)-3-methylphenyl]acetic acid], the melting point was 125 to 126 °C and the EC50 [1] was 7.8 nM.
In the case of `CCC(CC)c1nn(-c2ccc(Cl)cn2)cc1CCCOc1c(CC(=O)O)cccc1OC` [Example 223, (2-{3-[1-(5-chloro-2-pyridyl)-3-(1-ethylpropyl)-1H-pyrazol-4-yl]propoxy}-3-methoxyphenyl)acetic acid], the melting point is reported as 85 to 86 °C and the EC50 [1] is reported as 24 nM.
Work on `CCc1cccc(CC(=O)O)c1OCCCc1cn(-c2ccc(C(F)(F)F)cn2)nc1C(C)C` [Example 227, [3-ethyl-2-(3-{3-isopropyl-1-[5-(trifluoromethyl)-2-pyridinyl]-1H-pyrazol-4-yl}propoxy)phenyl]acetic acid] yielded a melting point of 155 to 156 °C and an EC50 [1] of 22 nM.
With `CCCc1nn(-c2ccc(C(F)(F)F)cn2)cc1CCCOc1c(Br)cccc1CC(=O)O` [Example 237, [3-bromo-2-(3-{3-propyl-1-[5-(trifluoromethyl)-2-pyridinyl]-1H-pyrazol-4-yl}propoxy)phenyl]acetic acid] the melting point was 145 to 146 °C and the EC50 [1] was 17 nM.
`CCc1cccc(CC(=O)O)c1OCCCc1cn(-c2ccc(C(F)(F)F)nn2)nc1C(C)C` [Example 245, [3-ethyl-2-(3-{3-isopropyl-1-[6-(trifluoromethyl)pyridazin-3-yl]-1H-pyrazol-4-yl}propoxy)phenyl]acetic acid] showed a melting point of 126 to 127 °C and an EC50 [1] of 19 nM.
Molecule `COc1cccc(CC(=O)O)c1OCCCc1cn(-c2ccc(C(F)(F)F)nn2)nc1C(C)C` [Example 274, [2-(3-{3-isopropyl-1-[6-(trifluoromethyl)pyridazin-3-yl]-1H-pyrazol-4-yl}propoxy)-3-methoxyphenyl]acetic acid] has a melting point of 92 to 93 °C and an EC50 [1] of 82 nM.
In the case of `COc1ccc(CC(=O)O)cc1OCCCc1cn(-c2ccc(C(F)(F)F)cn2)nc1C1CCCCC1` [Example 304, [3-(3-{3-cyclohexyl-1-[5-(trifluoromethyl)-2-pyridinyl]-1H-pyrazol-4-yl}propoxy)-4-methoxyphenyl]acetic acid], the melting point is reported as 117 to 118 °C and the EC50 [1] is reported as 40 nM.
With `COc1cccc(CC(=O)O)c1OCCCc1cn(-c2ccc(Cl)cn2)nc1C(C)C` [Example 311, (2-{3-[1-(5-chloro-2-pyridinyl)-3-isopropyl-1H-pyrazol-4-yl]propoxy}-3-methoxyphenyl)acetic acid] the melting point was 148 to 149 °C and the EC50 [1] was 100 nM.
With `Cc1cccc(CC(=O)O)c1OCCCc1cn(-c2ccc(C(F)(F)F)cn2)nc1C1CCCCC1` [Example 316, [2-(3-{3-cyclohexyl-1-[5-(trifluoromethyl)-2-pyridinyl]-1H-pyrazol-4-yl}propoxy)-3-methylphenyl]acetic acid] the melting point was 184 to 185 °C and the EC50 [1] was 3.8 nM.
In the case of `CCCc1nn(-c2ccc(C(F)(F)F)cn2)cc1CCCOc1c(C)cccc1CC(=O)O` [Example 319, [3-methyl-2-(3-{3-propyl-1-[5-(trifluoromethyl)-2-pyridinyl]-1H-pyrazol-4-yl}propoxy)phenyl]acetic acid], the melting point is reported as 134 to 135 °C and the EC50 [1] is reported as 26 nM.
Molecule `CCC(CC)c1nn(-c2ccc(C(F)(F)F)nn2)cc1CCCOc1c(C)cccc1CC(=O)O` [Example 340, [2-(3-{3-(1-ethylpropyl)-1-[6-(trifluoromethyl)pyridazin-3-yl]-1H-pyrazol-4-yl}propoxy)-3-methylphenyl]acetic acid] has a melting point of 76 to 77 °C and an EC50 [1] of 22 nM.
With `CCC(CC)c1nn(-c2ccc(Br)cn2)cc1CCCOc1c(CC(=O)O)cccc1OC` [Example 351, (2-{3-[1-(5-bromo-2-pyridinyl)-3-(1-ethylpropyl)-1H-pyrazol-4-yl]propoxy}-3-methoxyphenyl)acetic acid] the melting point was 94 to 95 °C and the EC50 [1] was 20 nM.
In the case of `Cc1cccc(CC(=O)O)c1OCCCc1cn(-c2ccc(C(F)(F)F)nn2)nc1C(C)(C)C` [Example 367, [2-(3-{3-tert-butyl-1-[6-(trifluoromethyl)pyridazin-3-yl]-1H-pyrazol-4-yl}propoxy)-3-methylphenyl]acetic acid], the melting point is reported as 96 to 97 °C and the EC50 [1] is reported as 41 nM.
